The test system of the assay is NL-RLuc virus. Kind of assay: Inhibition of HIV replication (NL-RLuc reporter virus in MT-2 cells, luciferase readout). In kind it is cell-based. The conditions noted are these: Human immunodeficiency virus 1, MT2, 120 h. From the text: Inhibition of HIV replication: A recombinant NL-RLuc proviral clone was constructed in which a section of the nef gene from NL4-3 was replaced with the Renilla Luciferase gene. This virus is fully infectious and can undergo multiple cycles of replication in cell culture. In addition, the luciferous reporter provides a simple and easy method for quantitating the extent of virus growth and consequently, the antiviral activity of test compounds. The plasmid pNLRLuc contains the proviral NL-Rluc DNA cloned into pUC18 at the PvuII site. The NL-RLuc virus was prepared by transfection of 293T cells with the plasmid pNLRLuc. Transfections were performed using the LipofectAMINE PLUS kit from Invitrogen (Carlsbad, Calif.) according to the manufacturer and the virus generated was titered in MT-2 cells. For susceptibility analyses, the titrated virus was used to infect MT-2 cells in the presence of compound, and after 5 days of incubation, cells were processed and quantitated for virus growth by the amount of expressed luciferase. Assay media was RPMI 1640 supplemented with 10% heat inactivated fetal bovine serum (FBS), 100 units/ml penicillin G/100 units/ml streptomycin, 10 mM HEPES buffer pH 7.55 and 2 mM L-glutamine. The results from at least 2 experiments were used to calculate the EC50 values. Luciferase was quantitated using the Dual Luciferase kit from Promega (Madison, Wis.). Susceptibility of viruses to compounds was determined by incubation in the presence of serial dilutions of the compound. The 50% effective concentration (EC50) was calculated by using the exponential form of the median effect equation where (Fa)=1/[1+(ED50/drug conc.)^m] (Johnson V A, Byington R T. Infectivity Assay. In Techniques in HIV Research. ed. Aldovini A, Walker B D. 71-76. New York: Stockton Press.1990). Activity equal to A refers to a compound having an EC50≤100 nM, while B and C denote compounds having an EC50 between 100 nM and 1 uM (B) or >1 uM (C).

Structures are written as SMILES. Read-outs that look alike come from different tables or passages of the source.

The source of these data is patent publication US10189816B2, “Substituted pyridines as inhibitors of human immunodeficiency virus replication” (priority 2015, dated 2019).

As to `Cc1nc(C)c([C@H](OC(C)(C)C)C(=O)O)c(N2CCC(C)(C)CC2)c1-c1ccc2c(c1)CCN(Cc1ccc(F)cc1)C2` [Compound 1, (S)-2-(tert-butoxy)-2-(4-(4,4-dimethylpiperidin-1-yl)-5-(2-(4-fluorobenzyl)-1,2,3,4-tetrahydroisoquinolin-6-yl)-2,6-dimethylpyridin-3-yl)acetic acid], the EC50 was less than 0.1 µM (read-out: Activity) and 0.006 µM (read-out: EC50 μM).
Turning to `Cc1nc(C)c([C@H](OC(C)(C)C)C(=O)O)c(N2CCC(C)(C)CC2)c1-c1ccc2c(c1)CCN(Cc1cccc(C(F)(F)F)c1)C2` [Compound 2, (S)-2-(tert-butoxy)-2-(4-(4,4-dimethylpiperidin-1-yl)-2,6-dimethyl-5-(2-(3-(trifluoromethyl)benzyl)-1,2,3,4-tetrahydroisoquinolin-6-yl)pyridin-3-yl)acetic acid], the EC50 (read-out: Activity) was less than 0.1 µM.
On the same count and under the same terms, for `Cc1cccc(CN2CCc3cc(-c4c(C)nc(C)c([C@H](OC(C)(C)C)C(=O)O)c4N4CCC(C)(C)CC4)ccc3C2)c1` [Compound 3, (S)-2-(tert-butoxy)-2-(4-(4,4-dimethylpiperidin-1-yl)-2,6-dimethyl-5-(2-(3-methylbenzyl)-1,2,3,4-tetrahydroisoquinolin-6-yl)pyridin-3-yl)acetic acid] the value was less than 0.1 µM.
For `Cc1ccccc1CN1CCc2cc(-c3c(C)nc(C)c([C@H](OC(C)(C)C)C(=O)O)c3N3CCC(C)(C)CC3)ccc2C1` [Compound 4, (S)-2-(tert-butoxy)-2-(4-(4,4-dimethylpiperidin-1-yl)-2,6-dimethyl-5-(2-(2-methylbenzyl)-1,2,3,4-tetrahydroisoquinolin-6-yl)pyridin-3-yl)acetic acid], under “read-out: Activity”, the EC50 is less than 0.1 µM.
The same measure, in the same setting: for `Cc1ccc(CN2CCc3cc(-c4c(C)nc(C)c([C@H](OC(C)(C)C)C(=O)O)c4N4CCC(C)(C)CC4)ccc3C2)cc1` [Compound 5, (S)-2-(tert-butoxy)-2-(4-(4,4-dimethylpiperidin-1-yl)-2,6-dimethyl-5-(2-(4-methylbenzyl)-1,2,3,4-tetrahydroisoquinolin-6-yl)pyridin-3-yl)acetic acid] the value was less than 0.1 µM; for `COc1cccc(CN2CCc3cc(-c4c(C)nc(C)c([C@H](OC(C)(C)C)C(=O)O)c4N4CCC(C)(C)CC4)ccc3C2)c1` [Compound 6, (S)-2-(tert-butoxy)-2-(4-(4,4-dimethylpiperidin-1-yl)-5-(2-(3-methoxybenzyl)-1,2,3,4-tetrahydroisoquinolin-6-yl)-2,6-dimethylpyridin-3-yl)acetic acid], less than 0.1 µM.
`Cc1nc(C)c([C@H](OC(C)(C)C)C(=O)O)c(N2CCC(C)(C)CC2)c1-c1ccc2c(c1)CCN(Cc1cccc(F)c1)C2` [Compound 7, (S)-2-(tert-butoxy)-2-(4-(4,4-dimethylpiperidin-1-yl)-5-(2-(3-fluorobenzyl)-1,2,3,4-tetrahydroisoquinolin-6-yl)-2,6-dimethylpyridin-3-yl)acetic acid]: the EC50 reads like this: (read-out: Activity) less than 0.1 µM; (read-out: EC50 μM) 0.004 µM.
On to `Cc1nc(C)c([C@H](OC(C)(C)C)C(=O)O)c(N2CCC(C)(C)CC2)c1-c1ccc2c(c1)CCN(Cc1ccc(C(F)(F)F)cc1)C2` [Compound 8, (S)-2-(tert-butoxy)-2-(4-(4,4-dimethylpiperidin-1-yl)-2,6-dimethyl-5-(2-(4-(trifluoromethyl)benzyl)-1,2,3,4-tetrahydroisoquinolin-6-yl)pyridin-3-yl)acetic acid], for which the EC50 (read-out: Activity) is less than 0.1 µM.
The same measure, in the same setting: for `Cc1nc(C)c([C@H](OC(C)(C)C)C(=O)O)c(N2CCC(C)(C)CC2)c1-c1ccc2c(c1)CCN(Cc1ccccc1F)C2` [Compound 9, (S)-2-(tert-butoxy)-2-(4-(4,4-dimethylpiperidin-1-yl)-5-(2-(2-fluorobenzyl)-1,2,3,4-tetrahydroisoquinolin-6-yl)-2,6-dimethylpyridin-3-yl)acetic acid] the value was less than 0.1 µM.
Turning to `Cc1nc(C)c([C@H](OC(C)(C)C)C(=O)O)c(N2CCC(C)(C)CC2)c1-c1ccc2c(c1)CCN(Cc1cccc(C(=O)O)c1)C2` [Compound 10, (S)-3-((6-(5-(tert-butoxy(carboxy)methyl)-4-(4,4-dimethylpiperidin-1-yl)-2,6-dimethylpyridin-3-yl)-3,4-dihydroisoquinolin-2(1H)-yl)methyl)benzoic acid], the EC50 is, setting by setting: (read-out: Activity) more than 1 µM; (read-out: EC50 μM) 1.48 µM.
With `Cc1nc(C)c([C@H](OC(C)(C)C)C(=O)O)c(N2CCC(C)(C)CC2)c1-c1ccc2c(c1)CCN(Cc1cccc(-c3ccccc3)c1)C2` [Compound 11, (S)-2-(5-(2-([1,1′-biphenyl]-3-ylmethyl)-1,2,3,4-tetrahydroisoquinolin-6-yl)-4-(4,4-dimethylpiperidin-1-yl)-2,6-dimethylpyridin-3-yl)-2-(tert-butoxy)acetic acid], under “read-out: Activity”, the EC50 is less than 0.1 µM.
Same read-out and setting: under `Cc1nc(C)c([C@H](OC(C)(C)C)C(=O)O)c(N2CCC(C)(C)CC2)c1-c1ccc2c(c1)CCN(Cc1ccccc1C(F)(F)F)C2` [Compound 12, (S)-2-(tert-butoxy)-2-(4-(4,4-dimethylpiperidin-1-yl)-2,6-dimethyl-5-(2-(2-(trifluoromethyl)benzyl)-1,2,3,4-tetrahydroisoquinolin-6-yl)pyridin-3-yl)acetic acid] stands less than 0.1 µM.
Take `Cc1nc(C)c([C@H](OC(C)(C)C)C(=O)O)c(N2CCC(C)(C)CC2)c1-c1ccc2c(c1)CCN(C(C)c1ccccc1)C2` (stereo partly drawn) [Compound 13, (2S)-2-(tert-butoxy)-2-(4-(4,4-dimethylpiperidin-1-yl)-2,6-dimethyl-5-(2-(1-phenylethyl)-1,2,3,4-tetrahydroisoquinolin-6-yl)pyridin-3-yl)acetic acid]: the EC50 (read-out: Activity) was less than 0.1 µM.
Take `Cc1nc(C)c([C@H](OC(C)(C)C)C(=O)O)c(N2CCC(C)(C)CC2)c1-c1ccc2c(c1)CCN(Cc1ccc(-c3ccccc3)cc1)C2` [Compound 14, (S)-2-(5-(2-([1,1′-biphenyl]-4-ylmethyl)-1,2,3,4-tetrahydroisoquinolin-6-yl)-4-(4,4-dimethylpiperidin-1-yl)-2,6-dimethylpyridin-3-yl)-2-(tert-butoxy)acetic acid]: the EC50 (read-out: Activity) was less than 0.1 µM and the EC50 (read-out: EC50 μM) was determined as 0.034 µM.
Consider `Cc1nc(C)c([C@H](OC(C)(C)C)C(=O)O)c(N2CCC(C)(C)CC2)c1-c1ccc2c(c1)CCN(Cc1cccc(C(F)(F)F)c1C)C2` [Compound 15, (S)-2-(tert-butoxy)-2-(4-(4,4-dimethylpiperidin-1-yl)-2,6-dimethyl-5-(2-(2-methyl-3-(trifluoromethyl)benzyl)-1,2,3,4-tetrahydroisoquinolin-6-yl)pyridin-3-yl)acetic acid], for which the EC50 (read-out: Activity) was less than 0.1 µM.
Still for that read-out and setting: under `Cc1ccc(CN2CCc3cc(-c4c(C)nc(C)c([C@H](OC(C)(C)C)C(=O)O)c4N4CCC(C)(C)CC4)ccc3C2)cc1C(F)(F)F` [Compound 16, (S)-2-(tert-butoxy)-2-(4-(4,4-dimethylpiperidin-1-yl)-2,6-dimethyl-5-(2-(4-methyl-3-(trifluoromethyl)benzyl)-1,2,3,4-tetrahydroisoquinolin-6-yl)pyridin-3-yl)acetic acid] stands less than 0.1 µM; under `Cc1ccc(CN2CCc3cc(-c4c(C)nc(C)c([C@H](OC(C)(C)C)C(=O)O)c4N4CCC(C)(C)CC4)ccc3C2)cc1F` [Compound 18, (S)-2-(tert-butoxy)-2-(4-(4,4-dimethylpiperidin-1-yl)-5-(2-(3-fluoro-4-methylbenzyl)-1,2,3,4-tetrahydroisoquinolin-6-yl)-2,6-dimethylpyridin-3-yl)acetic acid], less than 0.1 µM.
Same read-out and setting: under `Cc1ccc(CN2CCc3cc(-c4c(C)nc(C)c([C@H](OC(C)(C)C)C(=O)O)c4N4CCC(C)(C)CC4)ccc3C2)c(C)c1` [Compound 19, (S)-2-(tert-butoxy)-2-(5-(2-(2,4-dimethylbenzyl)-1,2,3,4-tetrahydroisoquinolin-6-yl)-4-(4,4-dimethylpiperidin-1-yl)-2,6-dimethylpyridin-3-yl)acetic acid] stands less than 0.1 µM; under `Cc1nc(C)c([C@H](OC(C)(C)C)C(=O)O)c(N2CCC(C)(C)CC2)c1-c1ccc2c(c1)CCN(Cc1ccc(F)cc1F)C2` [Compound 20, (S)-2-(tert-butoxy)-2-(5-(2-(2,4-difluorobenzyl)-1,2,3,4-tetrahydroisoquinolin-6-yl)-4-(4,4-dimethylpiperidin-1-yl)-2,6-dimethylpyridin-3-yl)acetic acid], less than 0.1 µM.
Take `Cc1nc(C)c([C@H](OC(C)(C)C)C(=O)O)c(N2CCC(C)(C)CC2)c1-c1ccc2c(c1)CCN(Cc1cccc(F)c1F)C2` [Compound 21, (S)-2-(tert-butoxy)-2-(5-(2-(2,3-difluorobenzyl)-1,2,3,4-tetrahydroisoquinolin-6-yl)-4-(4,4-dimethylpiperidin-1-yl)-2,6-dimethylpyridin-3-yl)acetic acid]: the EC50 (read-out: Activity) is less than 0.1 µM.
